Source: ChEMBL document CHEMBL1201862, “PubChem BioAssay data set” (2004)
Active and inactive are the calls of the source.

Columns and labels:
[1] = target: G2/mitotic-specific cyclin-B1 (Homo sapiens, UniProt P14635); assay: Counterscreen assay for inhibitors of Wee1 degradation: dose response cell-based assay to identify inhibitors of cyclin B degradation. [Related pubchem assays: 1410, 1321 ]; type: functional
[2] = target: Sphingosine 1-phosphate receptor 2 (Homo sapiens, UniProt O95136); assay: Dose Response Cell Based Assay for Antagonists of the S1P2 Receptor. [Related pubchem assays: 856, 736 ]; type: functional
Sequence of Sphingosine 1-phosphate receptor 2 (O95136 whole entry): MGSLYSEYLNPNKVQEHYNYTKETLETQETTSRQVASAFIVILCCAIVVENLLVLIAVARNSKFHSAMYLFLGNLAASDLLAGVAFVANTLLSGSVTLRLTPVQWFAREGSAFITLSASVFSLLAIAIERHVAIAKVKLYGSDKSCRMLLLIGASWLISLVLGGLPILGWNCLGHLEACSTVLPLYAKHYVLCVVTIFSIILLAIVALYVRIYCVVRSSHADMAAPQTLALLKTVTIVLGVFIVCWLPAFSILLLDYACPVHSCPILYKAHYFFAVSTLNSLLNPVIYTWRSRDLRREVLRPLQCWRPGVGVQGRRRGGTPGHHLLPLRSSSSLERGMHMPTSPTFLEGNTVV

HeLa = assay: Cytotoxicity counterscreen assay for transcriptional activators of heat shock protein 70 (Hsp70). [Related pubchem assays: 1203, 1252 ]; type: functional; conditions: Homo sapiens;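 also: cells exposed to compound for 16 hours before readout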
Wee1-like protein kinase = Wee1-like protein kinase (Homo sapiens, UniProt P30291); assay: Dose Response Cell-based Assay for Inhibitors of Wee1 Degradation. [Related pubchem assays: 1410, 1321 ]; type: functional
Sequence of Wee1-like protein kinase (P30291 whole entry): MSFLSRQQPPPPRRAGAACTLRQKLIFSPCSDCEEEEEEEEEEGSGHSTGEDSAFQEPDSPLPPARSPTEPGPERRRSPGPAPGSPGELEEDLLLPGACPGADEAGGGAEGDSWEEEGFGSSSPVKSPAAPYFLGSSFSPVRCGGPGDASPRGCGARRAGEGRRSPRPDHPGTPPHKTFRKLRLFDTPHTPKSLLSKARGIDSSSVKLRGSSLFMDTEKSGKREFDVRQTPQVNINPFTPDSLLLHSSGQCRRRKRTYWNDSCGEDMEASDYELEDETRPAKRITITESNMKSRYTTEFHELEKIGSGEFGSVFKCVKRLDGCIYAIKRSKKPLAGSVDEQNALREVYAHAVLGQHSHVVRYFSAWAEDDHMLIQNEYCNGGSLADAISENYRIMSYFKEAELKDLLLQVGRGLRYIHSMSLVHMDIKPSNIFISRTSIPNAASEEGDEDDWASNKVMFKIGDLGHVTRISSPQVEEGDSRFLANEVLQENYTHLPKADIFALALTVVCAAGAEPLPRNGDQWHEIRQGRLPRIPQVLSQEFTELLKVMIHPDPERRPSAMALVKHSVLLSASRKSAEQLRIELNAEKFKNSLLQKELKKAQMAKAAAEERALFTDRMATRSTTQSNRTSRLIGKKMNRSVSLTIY

Beta-galactosidase = Beta-galactosidase (Escherichia coli, UniProt Q8VNN2); assay: PubChem AID 485352; type: functional
Sequence of Beta-galactosidase (Q8VNN2 whole entry): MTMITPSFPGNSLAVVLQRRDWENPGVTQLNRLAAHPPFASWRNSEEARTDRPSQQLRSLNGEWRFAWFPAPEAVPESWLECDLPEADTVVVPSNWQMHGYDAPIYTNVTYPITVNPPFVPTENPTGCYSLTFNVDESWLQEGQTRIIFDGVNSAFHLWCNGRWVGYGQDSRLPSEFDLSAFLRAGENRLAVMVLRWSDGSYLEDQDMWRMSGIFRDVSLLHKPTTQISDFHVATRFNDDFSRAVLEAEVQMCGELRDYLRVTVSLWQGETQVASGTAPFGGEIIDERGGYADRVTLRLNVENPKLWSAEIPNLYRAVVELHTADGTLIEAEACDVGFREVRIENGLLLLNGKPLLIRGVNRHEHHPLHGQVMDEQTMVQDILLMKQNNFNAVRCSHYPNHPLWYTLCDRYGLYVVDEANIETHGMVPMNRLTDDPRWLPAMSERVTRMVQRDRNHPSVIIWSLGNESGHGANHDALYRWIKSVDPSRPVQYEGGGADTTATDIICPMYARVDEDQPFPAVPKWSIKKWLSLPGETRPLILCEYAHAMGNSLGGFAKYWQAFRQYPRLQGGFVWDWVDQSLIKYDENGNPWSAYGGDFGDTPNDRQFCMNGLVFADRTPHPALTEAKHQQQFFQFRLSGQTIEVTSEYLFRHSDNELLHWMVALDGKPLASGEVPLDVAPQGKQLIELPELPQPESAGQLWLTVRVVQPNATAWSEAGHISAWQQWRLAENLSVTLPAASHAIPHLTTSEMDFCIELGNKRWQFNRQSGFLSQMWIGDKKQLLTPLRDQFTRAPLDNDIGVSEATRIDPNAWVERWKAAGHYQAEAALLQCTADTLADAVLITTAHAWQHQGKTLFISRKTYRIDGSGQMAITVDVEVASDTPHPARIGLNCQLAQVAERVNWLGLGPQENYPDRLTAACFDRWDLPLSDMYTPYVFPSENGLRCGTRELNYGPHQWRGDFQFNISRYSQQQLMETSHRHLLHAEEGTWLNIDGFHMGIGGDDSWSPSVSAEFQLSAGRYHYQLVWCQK

[3] = target: T1, Heat shock factor protein 1 (Mus musculus, UniProt P38532); assay: inhibition of MG132-induced HSE-luciferase signal, confirmation, cell-based, NIH3T3, luminescence, dose retest (AID 2382); type: functional;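 also: NIH3T3 fibroblasts with HSF1-driven luciferase reporter stressed by proteasome inhibitor MG132; luminescence from HSF1-driven luciferase expression after 8 hours of MG132 stress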
T1 sequence (P38532 whole entry): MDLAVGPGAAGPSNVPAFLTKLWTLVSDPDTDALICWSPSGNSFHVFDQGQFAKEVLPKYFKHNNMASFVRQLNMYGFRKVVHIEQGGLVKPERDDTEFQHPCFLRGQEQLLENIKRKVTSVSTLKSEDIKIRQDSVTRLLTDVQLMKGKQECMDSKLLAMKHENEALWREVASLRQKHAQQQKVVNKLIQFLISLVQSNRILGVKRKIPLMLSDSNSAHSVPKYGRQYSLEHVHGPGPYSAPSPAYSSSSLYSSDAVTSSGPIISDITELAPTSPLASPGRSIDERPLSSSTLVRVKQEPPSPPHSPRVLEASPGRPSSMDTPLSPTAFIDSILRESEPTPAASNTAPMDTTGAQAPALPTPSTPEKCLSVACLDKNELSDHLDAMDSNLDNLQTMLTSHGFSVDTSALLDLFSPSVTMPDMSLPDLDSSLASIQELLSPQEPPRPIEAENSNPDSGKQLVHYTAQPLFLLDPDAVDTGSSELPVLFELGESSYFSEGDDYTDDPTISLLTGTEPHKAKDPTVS

[4] = microbe, parasite or virus in culture; type: functional; conditions: Mycobacterium tuberculosis
[5] = target: T2, Type-1 angiotensin II receptor (Homo sapiens, UniProt P30556); assay: AT1 receptor antagonists, dose response, selectivity assay for APJ receptor antagonist project, cell-based, uHTS hits (AID 463214); type: functional;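 also: antagonist potency against angiotensin II stimulated AT1 response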
T2 sequence (P30556 whole entry): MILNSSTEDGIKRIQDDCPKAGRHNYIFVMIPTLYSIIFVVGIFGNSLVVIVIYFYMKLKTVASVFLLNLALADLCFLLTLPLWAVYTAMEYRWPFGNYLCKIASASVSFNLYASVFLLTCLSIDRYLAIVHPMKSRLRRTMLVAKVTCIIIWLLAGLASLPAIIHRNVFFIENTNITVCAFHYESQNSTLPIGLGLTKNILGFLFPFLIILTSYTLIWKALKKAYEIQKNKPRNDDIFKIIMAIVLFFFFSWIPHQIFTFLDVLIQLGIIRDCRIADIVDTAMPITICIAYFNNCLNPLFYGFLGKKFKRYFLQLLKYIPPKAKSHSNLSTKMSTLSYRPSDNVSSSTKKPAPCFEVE

[6] = target: Sphingosine 1-phosphate receptor 4 (Homo sapiens, UniProt O95977); assay: Fluorescence dose response cell-based high throughput screening assay for antagonists of the Sphingosine 1-Phosphate Receptor 4 (S1P4). [Related pubchem assays: 1524 (Confirmation in triplicates.), 1510 (Primary screen.)]; type: functional
Sequence of Sphingosine 1-phosphate receptor 4 (O95977 whole entry): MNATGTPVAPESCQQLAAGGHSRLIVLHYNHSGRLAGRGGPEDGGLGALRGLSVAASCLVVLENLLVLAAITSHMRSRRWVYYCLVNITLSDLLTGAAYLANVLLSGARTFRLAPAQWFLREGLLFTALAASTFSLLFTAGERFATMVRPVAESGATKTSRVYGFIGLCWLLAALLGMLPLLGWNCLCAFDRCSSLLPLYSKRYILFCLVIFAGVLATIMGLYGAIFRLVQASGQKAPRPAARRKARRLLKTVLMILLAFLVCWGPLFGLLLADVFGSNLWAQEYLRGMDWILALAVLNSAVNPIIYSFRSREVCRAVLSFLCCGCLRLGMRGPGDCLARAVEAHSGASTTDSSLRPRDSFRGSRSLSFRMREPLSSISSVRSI

[7] = target: Sphingosine 1-phosphate receptor 1 (Homo sapiens, UniProt P21453); type: functional;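 also: Tango beta-arrestin reporter U2OS cells stimulated with S1P near its EC80; inhibitor potency meaning antagonism of receptor activation by the natural agonist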
Sequence of Sphingosine 1-phosphate receptor 1 (P21453 whole entry): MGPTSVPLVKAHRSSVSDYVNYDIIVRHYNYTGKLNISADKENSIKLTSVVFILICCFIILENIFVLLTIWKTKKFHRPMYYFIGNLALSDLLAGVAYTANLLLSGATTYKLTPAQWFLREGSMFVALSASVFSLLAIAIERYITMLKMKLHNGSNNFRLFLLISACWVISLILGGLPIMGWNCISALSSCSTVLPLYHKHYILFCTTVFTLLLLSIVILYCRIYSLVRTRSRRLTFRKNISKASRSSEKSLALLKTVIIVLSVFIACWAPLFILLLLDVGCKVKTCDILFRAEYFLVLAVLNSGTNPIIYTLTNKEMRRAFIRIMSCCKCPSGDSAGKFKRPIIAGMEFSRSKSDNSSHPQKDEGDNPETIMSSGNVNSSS

[8] = cytotoxicity in HEK-293T cells, dose response, cytotoxicity control for TCR NF-kB inhibitor project, luminescence, T-cell screen hits (AID 489026); type: functional, cell-based;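 also: cells exposed to compound about 14 hours before the viability readout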
INS1 = assay: beta cell apoptosis inhibitors, cytokine rescue, dose response, luminescence, retest (AID 449756); type: functional, cell-based; conditions: Rattus norvegicus;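 also: cell death triggered by IL-1 beta plus TNF-alpha plus IFN-gamma mixture; protective hits raise ATP signal compared with cytokine alone wells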
[9] = target: Epstein-Barr nuclear antigen 1 (Epstein-Barr virus (strain B95-8) (HHV-4) (Human herpesvirus 4), UniProt P03211); assay: EBNA-1 inhibitors, dose response, biochemical, fluorescence polarization, 1536-well (AID 2381); parameters: species or system human gammaherpesvirus 4;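 also: fluorescence polarization of a Cy5 DNA probe bound by EBNA-1 protein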
Sequence of Epstein-Barr nuclear antigen 1 (P03211 whole entry): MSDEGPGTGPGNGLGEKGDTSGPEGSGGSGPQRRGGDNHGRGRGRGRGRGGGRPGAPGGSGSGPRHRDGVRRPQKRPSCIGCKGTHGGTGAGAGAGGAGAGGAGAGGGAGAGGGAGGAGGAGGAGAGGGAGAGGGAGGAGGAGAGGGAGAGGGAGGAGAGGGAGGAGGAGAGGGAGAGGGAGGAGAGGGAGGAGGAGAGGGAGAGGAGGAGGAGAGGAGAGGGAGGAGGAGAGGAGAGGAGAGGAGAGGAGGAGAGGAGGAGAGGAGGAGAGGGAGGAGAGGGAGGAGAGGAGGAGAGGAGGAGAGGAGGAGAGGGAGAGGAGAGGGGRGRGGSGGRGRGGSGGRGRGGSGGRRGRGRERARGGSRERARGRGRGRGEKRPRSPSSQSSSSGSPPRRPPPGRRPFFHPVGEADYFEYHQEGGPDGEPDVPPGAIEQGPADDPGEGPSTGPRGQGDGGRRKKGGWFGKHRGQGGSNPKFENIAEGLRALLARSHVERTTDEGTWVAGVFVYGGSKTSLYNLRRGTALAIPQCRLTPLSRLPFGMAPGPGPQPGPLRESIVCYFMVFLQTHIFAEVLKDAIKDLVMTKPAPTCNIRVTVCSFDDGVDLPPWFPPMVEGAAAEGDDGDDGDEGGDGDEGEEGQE

[10] = target: Lytic switch protein BZLF1 (Epstein-Barr virus (strain B95-8) (HHV-4) (Human herpesvirus 4), UniProt P03206); assay: EBV ZTA inhibitors, dose response, counter-screen for EBNA-1 inhibitor project, biochemical, fluorescence polarization, Epstein-Barr virus, 1536-well (AID 2377); parameters: species or system human gammaherpesvirus 4;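 also: fluorescence polarization of Cy5-labelled ZRE DNA probe bound by purified Zta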
Sequence of Lytic switch protein BZLF1 (P03206 whole entry, the tested form may be a part): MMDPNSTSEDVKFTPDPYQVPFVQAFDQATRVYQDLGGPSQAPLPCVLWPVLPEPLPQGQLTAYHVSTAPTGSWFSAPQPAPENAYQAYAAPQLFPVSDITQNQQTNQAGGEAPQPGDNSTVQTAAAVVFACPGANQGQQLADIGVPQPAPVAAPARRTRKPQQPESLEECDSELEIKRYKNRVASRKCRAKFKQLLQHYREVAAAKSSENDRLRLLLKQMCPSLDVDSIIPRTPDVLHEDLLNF

[11] = target: T3, Oxysterols receptor LXR-beta (Homo sapiens, UniProt P55055); type: functional, cell-based;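 also: agonist activity at LXR measured by a cell-based luminescence readout across a dose range, run as a counterscreen for daf-12 agonists; HEK293 cells with Gal4-LXR fusion and GAL4-driven luciferase reporter; potency for activation of Gal4-LXR reporter so compounds are agonists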
T3 sequence (P55055 whole entry): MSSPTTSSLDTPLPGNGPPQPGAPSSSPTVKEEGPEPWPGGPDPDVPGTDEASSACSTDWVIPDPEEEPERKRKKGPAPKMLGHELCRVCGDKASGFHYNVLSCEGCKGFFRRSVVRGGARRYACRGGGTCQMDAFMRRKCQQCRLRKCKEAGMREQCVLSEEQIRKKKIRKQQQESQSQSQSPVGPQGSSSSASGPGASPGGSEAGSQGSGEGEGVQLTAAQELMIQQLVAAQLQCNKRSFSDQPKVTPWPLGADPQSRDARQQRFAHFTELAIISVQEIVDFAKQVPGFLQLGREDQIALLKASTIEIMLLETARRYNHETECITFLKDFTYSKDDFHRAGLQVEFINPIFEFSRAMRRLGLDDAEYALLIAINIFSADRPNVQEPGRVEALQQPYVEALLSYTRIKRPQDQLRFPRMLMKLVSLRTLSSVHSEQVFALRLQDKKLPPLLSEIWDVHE

Estrogen receptor = target: T4, Estrogen receptor (Homo sapiens, UniProt P03372); assay: ERα–SRC-3 coactivator interaction inhibitors, confirmation, orthogonal assay, biochemical, ELISA, streptavidin-HRP readout (AID 1079)
T4 sequence (P03372 whole entry): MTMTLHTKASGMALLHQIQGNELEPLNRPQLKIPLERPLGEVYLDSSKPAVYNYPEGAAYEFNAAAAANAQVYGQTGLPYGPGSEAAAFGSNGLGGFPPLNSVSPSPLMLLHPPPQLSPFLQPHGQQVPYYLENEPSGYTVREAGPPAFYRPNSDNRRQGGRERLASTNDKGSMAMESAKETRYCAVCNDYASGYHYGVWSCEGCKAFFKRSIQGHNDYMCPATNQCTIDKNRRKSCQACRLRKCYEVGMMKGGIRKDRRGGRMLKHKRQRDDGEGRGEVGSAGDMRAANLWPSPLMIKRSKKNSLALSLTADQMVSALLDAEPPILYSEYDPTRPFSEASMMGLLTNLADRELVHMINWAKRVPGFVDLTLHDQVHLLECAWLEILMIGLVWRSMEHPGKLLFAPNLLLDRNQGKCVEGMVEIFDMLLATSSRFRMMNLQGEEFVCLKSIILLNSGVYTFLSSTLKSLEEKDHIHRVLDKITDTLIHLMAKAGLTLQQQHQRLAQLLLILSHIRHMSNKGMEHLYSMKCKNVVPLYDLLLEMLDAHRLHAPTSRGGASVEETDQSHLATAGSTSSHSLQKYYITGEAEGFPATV

Sequence of G2/mitotic-specific cyclin-B1 (P14635 whole entry): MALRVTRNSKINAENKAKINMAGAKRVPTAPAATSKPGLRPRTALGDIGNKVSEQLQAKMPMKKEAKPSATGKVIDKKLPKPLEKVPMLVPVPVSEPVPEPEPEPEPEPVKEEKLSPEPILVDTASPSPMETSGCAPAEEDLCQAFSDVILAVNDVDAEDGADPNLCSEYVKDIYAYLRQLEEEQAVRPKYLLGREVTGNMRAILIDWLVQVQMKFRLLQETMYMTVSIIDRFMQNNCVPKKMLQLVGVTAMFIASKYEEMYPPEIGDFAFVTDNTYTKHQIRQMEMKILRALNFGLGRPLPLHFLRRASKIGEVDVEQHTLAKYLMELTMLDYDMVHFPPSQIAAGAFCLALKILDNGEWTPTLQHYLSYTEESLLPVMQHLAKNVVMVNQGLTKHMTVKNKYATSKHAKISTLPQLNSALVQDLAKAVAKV

In the case of `CCCCS(=O)(=O)/C=C\C=C/S(=O)(=O)CCCC`, the EC50 [1] is reported as > 5.53 µM (active), the IC50 [2] is reported as 4.5 µM (active) and the CC50 (HeLa) is reported as 9.43 µM (active). For the same compound, the EC50 (Wee1-like protein kinase) was > 49.7 µM (not active), the EC50 (Beta-galactosidase) was > 40 µM (inactive) and the EC50 [3] was 3.04 µM (active). The CC50 [4] was 3.13 µM (active), the IC50 [5] was 3.67 µM (active) and the IC50 [6] was 1.28 µM (active). The IC50 [7] was 13.7 µM (not active), the IC50 [8] was 52.6 µM (inactive) and the AC50 (INS1) was 3.25 µM (active).

In the case of `COc1ccc2oc(C(=O)Nc3nccs3)c(C)c2c1`, the IC50 [9] is reported as 21 µM (not active), the IC50 [10] is reported as > 111 µM (not active) and the EC50 [11] is reported as > 67.5 µM (inactive).

In the case of `COC(=O)c1ccc2c(=O)n(CCCC(=O)N3CCN(c4cccc(Cl)c4)CC3)c(=S)[nH]c2c1`, the IC50 (Estrogen receptor) is reported as 18.7 µM (not active).
